Consider 13 compounds from ChEMBL document CHEMBL1201862, “PubChem BioAssay data set” (2004).

Broadly, the GI50 is the concentration at which growth is held to half of that of the control.

Among the test systems are ACHN; BT-549; CCRF-CEM; DU-145; EKVX; HOP-92; HT-29; K562; LOX IMVI; M14; MCF7; NCI/ADR-RES; SK-MEL-28; SK-OV-3; SNB-19; UACC-257; SNB-75.
What all share (experiment): DTP human tumour cell line panel, 48 h

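Assay format: 96-well plates, 48-hour exposure. GI50: concentration for 50% inhibition of growth.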 The source made the active and inactive calls. Cut-off read from the data, not from the text of the source: active = GI50 up to about 1.1 µM and inactive = higher. Where only a bound is given, the exact number is not on record here.

With `O=C1/C(=C\c2cccc(Oc3ccccc3)c2)SC(c2ccccc2)N1c1ccccc1Cl` (stereo not drawn), the GI50 in the experiment on ACHN was 39.6 µM (inactive); with BT-549 it was 21.3 µM (inactive); in the experiment with CCRF-CEM, 6.87 µM (inactive); with DU-145, 32.9 µM (inactive); in the experiment with EKVX, 28.8 µM (inactive); with HOP-92, 14.6 µM (inactive). The GI50 was 19.7 µM (inactive) in the experiment on HT-29; 23 µM (inactive) in the experiment on K562; 22.2 µM (inactive) with LOX IMVI; 30.8 µM (inactive) with M14; 28.1 µM (inactive) in the experiment with MCF7; 27.9 µM (inactive) in the experiment with NCI/ADR-RES. The GI50 is 41.2 µM (inactive) with SK-MEL-28, 25.4 µM (inactive) with SK-OV-3, 24.4 µM (inactive) in the experiment with SNB-19 and 24.5 µM (inactive) with UACC-257.

With `O=C1c2cc(Cl)ccc2N=C(NCCCl)C2CSCN12` (stereo not drawn), the GI50 in the experiment with ACHN is > 100 µM (inactive); with BT-549 it was > 100 µM (inactive); in the experiment with CCRF-CEM, 78.7 µM (inactive); with DU-145, > 100 µM (inactive); in the experiment with EKVX it was > 100 µM (inactive); with HT-29, > 100 µM (inactive). Besides, the GI50 is 70.1 µM (inactive) with K562; > 100 µM (inactive) in the experiment with LOX IMVI; > 100 µM (inactive) in the experiment on M14; > 100 µM (inactive) in the experiment with MCF7; > 100 µM (inactive) in the experiment on NCI/ADR-RES; > 100 µM (inactive) in the experiment with SK-MEL-28. In addition, the GI50 with SK-OV-3, in the experiment with SNB-19 and in the experiment on UACC-257 was > 100 µM (inactive) each time.

With `[N-]=[N+]=Nc1ccc(NCCCCCC(=O)ON2C(=O)CCC2=O)c([N+](=O)[O-])c1`, the GI50 in the experiment on ACHN is 49.1 µM (inactive); with BT-549, > 100 µM (inactive); in the experiment with DU-145 it was > 100 µM (inactive); with EKVX, 98.9 µM (inactive); in the experiment on HOP-92, 10.3 µM (inactive); in the experiment on HT-29 it was > 100 µM (inactive). Also, the GI50 in the experiment on K562 was 22.4 µM (inactive); with LOX IMVI, 48.8 µM (inactive); with M14 it was 58.3 µM (inactive); with MCF7 it was > 100 µM (inactive); in the experiment with NCI/ADR-RES, 31.1 µM (inactive); in the experiment on SK-MEL-28, 74.1 µM (inactive). Further, the GI50 with SK-OV-3 was > 100 µM (inactive); in the experiment on SNB-19, > 100 µM (inactive); with SNB-75 it was 72.9 µM (inactive); in the experiment on UACC-257, > 100 µM (inactive).

For `CC(C)(C)OC(=O)N1C(OP(=O)(Oc2ccccc2)Oc2ccccc2)=CSc2ccccc21`, the GI50 in the experiment on ACHN was 27.5 µM (inactive); in the experiment with BT-549, 48.4 µM (inactive); in the experiment on DU-145, 89.9 µM (inactive); in the experiment on EKVX it was 31.8 µM (inactive); in the experiment on HOP-92, 27.9 µM (inactive); in the experiment on HT-29, 50.2 µM (inactive). The GI50 in the experiment on K562 is 38.3 µM (inactive); with LOX IMVI, 47.2 µM (inactive); in the experiment with M14, 25.8 µM (inactive); in the experiment on MCF7, 28.5 µM (inactive); with NCI/ADR-RES, 43.2 µM (inactive); with SK-MEL-28 it was 26.5 µM (inactive). The GI50 in the experiment with SK-OV-3 was 57.8 µM (inactive); with SNB-19, 43.2 µM (inactive); in the experiment with SNB-75, 31 µM (inactive); in the experiment with UACC-257 it was 31.6 µM (inactive).

On to `Cc1c(C(=O)OCc2ccccc2)[n+]([O-])c2cc(Cl)c(Cl)cc2[n+]1[O-]`, for which the GI50 in the experiment on ACHN was 21.4 µM (inactive); in the experiment on BT-549, 20.4 µM (inactive); in the experiment with CCRF-CEM, 14.8 µM (inactive); with DU-145, 14.5 µM (inactive); with EKVX, 13.9 µM (inactive); with HOP-92, 6.27 µM (inactive). Moreover, the GI50 with HT-29 is 17.1 µM (inactive); in the experiment on K562, 23.6 µM (inactive); in the experiment with LOX IMVI, 17.2 µM (inactive); in the experiment on M14, 15 µM (inactive); with MCF7, 19.5 µM (inactive); in the experiment on NCI/ADR-RES it was 18.2 µM (inactive). Also, the GI50 is 25.1 µM (inactive) in the experiment with SK-MEL-28, 22.5 µM (inactive) with SK-OV-3, 27 µM (inactive) in the experiment with SNB-19 and 15.1 µM (inactive) in the experiment with UACC-257.

Take `CC(C)(C)C1CC[C@H](O)[C@H]([C@@H](O)CC2CC(=O)N(c3ccccc3)C(=O)C2)C1` (stereo partly drawn): the GI50 in the experiment on ACHN was 69 µM (inactive); with BT-549, 29.4 µM (inactive); with CCRF-CEM, 51.9 µM (inactive); in the experiment with DU-145, 55.3 µM (inactive); with EKVX, 70 µM (inactive); in the experiment with HOP-92 it was 23.3 µM (inactive). The GI50 is 23.1 µM (inactive) in the experiment with HT-29; 54.1 µM (inactive) in the experiment with K562; 49.3 µM (inactive) in the experiment with LOX IMVI; 43.8 µM (inactive) in the experiment on M14; 44.2 µM (inactive) in the experiment on MCF7; 67.9 µM (inactive) in the experiment with NCI/ADR-RES. The GI50 was > 100 µM (inactive) with SK-MEL-28, > 100 µM (inactive) with SNB-19, > 100 µM (inactive) in the experiment with SNB-75 and 89.9 µM (inactive) in the experiment on UACC-257.

With `N=C(N)SC(c1ccccc1)c1ccccc1`, the GI50 in the experiment with ACHN is 14.9 µM (inactive); in the experiment with BT-549, 17.6 µM (inactive); in the experiment with CCRF-CEM, 10.5 µM (inactive); in the experiment with DU-145, 12.2 µM (inactive); with EKVX, 15 µM (inactive); in the experiment on HOP-92 it was 6.87 µM (inactive). For the same compound, the GI50 in the experiment with HT-29 is 13.3 µM (inactive); in the experiment with K562, 22.4 µM (inactive); with LOX IMVI, 15.2 µM (inactive); in the experiment with M14 it was 11.4 µM (inactive); in the experiment with MCF7, 15.4 µM (inactive); with NCI/ADR-RES, 17.2 µM (inactive). Also, the GI50 in the experiment on SK-MEL-28 was 4.84 µM (inactive); with SK-OV-3 it was 32.3 µM (inactive); with SNB-19, 28.1 µM (inactive); with UACC-257, 14.2 µM (inactive).

On to `CCn1c(SCC(=O)NNC(=S)Nc2ccc(F)cc2)nc2ccccc2c1=O`, for which the GI50 in the experiment with ACHN, in the experiment on BT-549, in the experiment with CCRF-CEM, with DU-145, in the experiment with EKVX and in the experiment on HT-29 was > 100 µM (inactive) throughout. For the same compound, the GI50 in the experiment with K562 was 74.5 µM (inactive); in the experiment with LOX IMVI, > 100 µM (inactive); in the experiment on M14 it was > 100 µM (inactive); in the experiment with MCF7, > 100 µM (inactive); in the experiment with NCI/ADR-RES it was > 100 µM (inactive); with SK-MEL-28 it was > 100 µM (inactive). Moreover, the GI50 in the experiment with SK-OV-3, in the experiment with SNB-19, in the experiment with SNB-75 and with UACC-257 was > 100 µM (inactive) each time.

For the compound `C/C(=N\Nc1nc2ccccc2s1)c1ccncn1`, the concentration for 50% growth inhibition (GI50) in the experiment with ACHN was 0.0673 µM (active); in the experiment on BT-549 it was 4.15 µM (inactive); in the experiment on CCRF-CEM, 0.117 µM (active); with DU-145, 3.54 µM (inactive); in the experiment on EKVX, 0.245 µM (active); in the experiment on HOP-92 it was 0.817 µM (active). Moreover, the concentration for 50% growth inhibition (GI50) is 0.0311 µM (active) in the experiment on HT-29; 0.973 µM (active) in the experiment with K562; 0.51 µM (active) in the experiment with M14; 0.348 µM (active) with MCF7; 0.351 µM (active) with NCI/ADR-RES; 2 µM (inactive) with SK-MEL-28. Further, the GI50 was 1.74 µM (inactive) in the experiment on SK-OV-3, 3.02 µM (inactive) with SNB-19, 4.1 µM (inactive) in the experiment with SNB-75 and 0.719 µM (active) in the experiment on UACC-257.

Consider `O=C(N/N=C/c1ccc(Br)cc1)N/N=C/c1ccc(Br)cc1`, for which the GI50 in the experiment on ACHN is 4.94 µM (inactive); in the experiment with BT-549 it was 20.9 µM (inactive); in the experiment with CCRF-CEM, 3.24 µM (inactive); in the experiment with DU-145 it was 9.12 µM (inactive); with EKVX, 10.3 µM (inactive); in the experiment on HT-29, 11.4 µM (inactive). The GI50 with K562 was 16.6 µM (inactive); in the experiment on LOX IMVI, 3.98 µM (inactive); in the experiment with M14 it was 11.1 µM (inactive); in the experiment on MCF7, 11.3 µM (inactive); in the experiment on NCI/ADR-RES it was 5.6 µM (inactive); in the experiment with SK-MEL-28, 12 µM (inactive). Besides, the GI50 in the experiment with SK-OV-3 was 2.43 µM (inactive); in the experiment with SNB-19, 4.42 µM (inactive); in the experiment with UACC-257, 17.6 µM (inactive).

On to `CC(C)N1[C@@H]2CCCC[C@H]2N(C(C)C)P1(=O)C(=O)/C=C/c1ccccc1`, for which the GI50 in the experiment with ACHN is 2.69 µM (inactive); with BT-549, 2.91 µM (inactive); with DU-145, 2.08 µM (inactive); in the experiment on EKVX, 3.54 µM (inactive); with HOP-92, 1.76 µM (inactive); in the experiment on HT-29, 2.79 µM (inactive). Moreover, the GI50 in the experiment with K562 was 2.52 µM (inactive); in the experiment on LOX IMVI, 2.03 µM (inactive); in the experiment with M14 it was 2.02 µM (inactive); with MCF7 it was 3.5 µM (inactive); in the experiment with NCI/ADR-RES, 2.02 µM (inactive); in the experiment on SK-MEL-28, 2.37 µM (inactive). Moreover, the results for the GI50 in the experiment on SNB-19 and in the experiment with UACC-257 were 5.52 µM (inactive) and 3.08 µM (inactive), respectively.

For the compound `c1ccc2c(c1)CC1COc3ccccc3C1O2` (stereo not drawn), the GI50 in the experiment with ACHN is 75.9 µM (inactive); in the experiment on BT-549 it was 70.3 µM (inactive); in the experiment on CCRF-CEM, 73.6 µM (inactive); with DU-145, > 100 µM (inactive); in the experiment with EKVX, 48.3 µM (inactive); with HOP-92, 47 µM (inactive). Moreover, the GI50 in the experiment on HT-29 is 33.4 µM (inactive); with K562, > 100 µM (inactive); with LOX IMVI it was 58.7 µM (inactive); in the experiment with M14 it was > 100 µM (inactive); in the experiment on MCF7, 45.2 µM (inactive); with NCI/ADR-RES it was 47.8 µM (inactive). In addition, the GI50 was > 100 µM (inactive) with SK-OV-3, > 100 µM (inactive) with SNB-75 and 38.8 µM (inactive) in the experiment on UACC-257.

With `O=C(CSCC(=O)N/N=C\c1cc(Br)cc(Br)c1O)N/N=C\c1cc(Br)cc(Br)c1O`, the GI50 in the experiment on ACHN is 12.9 µM (inactive); in the experiment on BT-549, 37.4 µM (inactive); with DU-145, 62.4 µM (inactive); with EKVX, 37.1 µM (inactive); with HOP-92, 19.5 µM (inactive); with HT-29, 39.6 µM (inactive). Besides, the GI50 with K562 was 21.9 µM (inactive); with LOX IMVI, 6.68 µM (inactive); with M14, 11.6 µM (inactive); with MCF7 it was 44.8 µM (inactive); in the experiment on NCI/ADR-RES, 29.4 µM (inactive); with SK-MEL-28, 26.4 µM (inactive). Further, the GI50 in the experiment with SK-OV-3 was 53.5 µM (inactive); in the experiment with SNB-19, 65.6 µM (inactive); with SNB-75, 24 µM (inactive); in the experiment on UACC-257, 23.5 µM (inactive).
